Test: mn = molality of the nth substance listed, in mol/kg
Conditions: 101 kPa, Liquid; for speed of sound: Frequency=1.999 MHz, Sing-around technique in a fixed-path interferometer; for mass density: Vibrating tube method

C[N+](C)(C)CC(=O)[O-] [(trimethylammonio)acetate] + O
Conditions	mass density [kg/m3]	speed of sound [m/s]
288.15 K, m1 = 0.0482	1000.1	1471.1
288.15 K, m1 = 0.1063	1001.2	1477.4
288.15 K, m1 = 0.5027	1008.5	1517.6
288.15 K, m1 = 1.002	1016.8	1562.8
288.15 K, m1 = 1.504	1024.3	1599.7
288.15 K, m1 = 2.005	1030.9	1628.1
288.15 K, m1 = 2.519	1036.6	1648.9
288.15 K, m1 = 3.008	1041.8	1658.3
293.15 K, m1 = 0.0482	999.1	1487.7
293.15 K, m1 = 0.1063	1000.2	1493.8
293.15 K, m1 = 0.5027	1007.2	1535.4
293.15 K, m1 = 1.002	1015.1	1580.7
293.15 K, m1 = 1.504	1022.1	1619.5
293.15 K, m1 = 2.005	1028.1	1649.8
293.15 K, m1 = 2.519	1033.6	1670.4
293.15 K, m1 = 3.008	1038.5	1680.1
298.15 K, m1 = 0.0482	997.9	1501.6
298.15 K, m1 = 0.1063	998.9	1507.6
298.15 K, m1 = 0.5027	1005.6	1547.2
298.15 K, m1 = 1.002	1013.1	1593.1
298.15 K, m1 = 1.504	1019.9	1630
298.15 K, m1 = 2.005	1025.8	1656.8
298.15 K, m1 = 2.519	1031	1674.5
298.15 K, m1 = 3.008	1035.4	1698.9
303.15 K, m1 = 0.0482	996.6	1514.1
303.15 K, m1 = 0.1063	997.6	1520
303.15 K, m1 = 0.5027	1004.2	1558.6
303.15 K, m1 = 1.002	1011.6	1602.3
303.15 K, m1 = 1.504	1018	1639.6
303.15 K, m1 = 2.005	1023.5	1669.8
303.15 K, m1 = 2.519	1028.4	1689.7
303.15 K, m1 = 3.008	1032.8	1715.2
308.15 K, m1 = 0.0482	994.9	1524.2
308.15 K, m1 = 0.1063	995.9	1529.9
308.15 K, m1 = 0.5027	1002.5	1567.5
308.15 K, m1 = 1.002	1009.9	1610.2
308.15 K, m1 = 1.504	1016.4	1648.1
308.15 K, m1 = 2.005	1022	1679.8
308.15 K, m1 = 2.519	1027.1	1700
308.15 K, m1 = 3.008	1031.2	1726.5
313.15 K, m1 = 0.0482	993.1	1533.4
313.15 K, m1 = 0.1063	994.1	1538.8
313.15 K, m1 = 0.5027	1000.7	1574.2
313.15 K, m1 = 1.002	1007.9	1615.7
313.15 K, m1 = 1.504	1014.4	1652.3
313.15 K, m1 = 2.005	1019.9	1682.8
313.15 K, m1 = 2.519	1025	1705.9
313.15 K, m1 = 3.008	1029.1	1737.1
318.15 K, m1 = 0.0482	991.1	1540.8
318.15 K, m1 = 0.1063	992.1	1546
318.15 K, m1 = 0.5027	998.7	1580.3
318.15 K, m1 = 1.002	1006	1620.9
318.15 K, m1 = 1.504	1012.4	1656.7
318.15 K, m1 = 2.005	1018	1688.3
318.15 K, m1 = 2.519	1022.8	1713.8
318.15 K, m1 = 3.008	1027.3	1743.7

Source: the NIST ThermoML archive (doi:10.1016/j.tca.2013.08.002)
